Here are results for 5 compounds from ChEMBL document CHEMBL1151219, “Bioactive diterpenoids, a new jatrophane and two ent-abietanes, and other constituents from Euphorbia pubescens” (2004).

For orientation: GI50 means the concentration giving 50% growth inhibition. Higher therefore signals less potent growth inhibition.

Each structure is given as a SMILES string. Active and inactive are the calls of the source. No cut-off for these calls is given here. Bounds are passed on as bounds.

One test has as its system NCI-H460. Kind of test: Growth inhibition of human NCI-H460 cells after 48 hrs by SRB assay. The test is classed as functional. The following applies: NCI-H460, 48 h. (In general: Sulforhodamine B stains cellular protein and so reports cell mass.)
Test [1] concerns SF-268. Kind of test: Growth inhibition of human SF268 cells after 48 hrs by SRB assay. The following applies: SF-268, 48 h. The test is classed as functional.
The test system of another test is MCF7. Kind of test: Growth inhibition of human MCF7 cells after 48 hrs by SRB assay. The settings on record: MCF7, 48 h. Format: functional.
In test [2] the test system is SF-268. Description: Growth inhibition of human SF268 cells at 100 uM after 48 hrs by SRB assay. The test is classed as functional, cell-based.
A further test concerns Escherichia coli. Kind of test: Antibacterial activity against Escherichia coli ATCC 25922 at 40 ug/spot after 24 hrs by bioautographic agar overlay method. The test is classed as functional, organism-based.
A further test has as its system Staphylococcus aureus. Kind of test: Antibacterial activity against Staphylococcus aureus ATCC 6538P at 2.5 ug/spot after 24 hrs by bioautographic agar overlay method. The test is classed as functional, organism-based.
The test system of the next test is Pseudomonas aeruginosa. Kind of test: Antibacterial activity against Pseudomonas aeruginosa ATCC 27853 at 40 ug/spot after 24 hrs by bioautographic agar overlay method. The test is classed as functional, organism-based.

As for `COc1cccc2c1C(=O)c1c(O)c3c(c(O)c1C2=O)C[C@@](O)(C(=O)CO)C[C@@H]3O[C@H]1C[C@H](N)[C@H](O)[C@H](C)O1` [DOXORUBICIN], the GI50 in the test with NCI-H460 is 0.094 µM; in the test on SF-268 [1], 0.093 µM; in the test on MCF7, 42.8 µM.
For `CC1=C2C=C3CC[C@@H]4C(C)(C)[C@H](O)CC[C@@]4(C)[C@@H]3C[C@H]2OC1=O` [HELIOSCOPINOLIDE A], the outcome with SF-268 [2], in the test on Escherichia coli and in the test on Pseudomonas aeruginosa was inactive. Further, the GI50 in the test with NCI-H460 is 72.8 µM; in the test with SF-268 [1] it was greater than 100 µM; with MCF7, 67.5 µM. The result with Staphylococcus aureus was Active.
In the case of `CC1=C2C=C3CC[C@@H]4C(C)(C)[C@@H](O)CC[C@@]4(C)[C@@H]3C[C@H]2OC1=O` [HELIOSCOPINOLIDE B], the outcome with SF-268 [2], in the test with Escherichia coli and in the test on Pseudomonas aeruginosa was inactive. For the same compound, the GI50 in the test with NCI-H460 was greater than 100 µM; in the test with SF-268 [1], greater than 100 µM; in the test with MCF7, 77 µM. Further, the result in the test with Staphylococcus aureus was Active.
For `CC(=O)O[C@H]1[C@H](C)C[C@]2(O)C(=O)/C(C)=C/CC(C)(C)[C@H](OC(C)=O)C[C@@H](OC(=O)c3ccccc3)/C(C)=C/[C@@H]12` [PUBESCENE D], the GI50 with NCI-H460 came out at 37.5 µM; in the test on SF-268 [1], 90.1 µM; in the test on MCF7 it was 37.5 µM.
With `C=C1C[C@H](OC(C)=O)C(=O)C(C)(C)/C=C/[C@@H](C)C(=O)[C@@]2(OC(C)=O)C[C@H](C)[C@H](OC(=O)c3ccccc3)[C@]2(O)[C@H]1OC(C)=O` [PUBESCENOL], the GI50 in the test with NCI-H460 is 55.6 µM; in the test on SF-268 [1] it was 75.2 µM; with MCF7, 69 µM.
